From ChEMBL document CHEMBL5465560, “Selectivity Literature for EUbOPEN Chemogenomic Library” (2024)

Experiments:
[1] = biological target: Calcium/calmodulin-dependent protein kinase type II subunit delta (Homo sapiens) (UniProt Q13557); conditions: at 10 µM
[2] = biological target: Mitogen-activated protein kinase kinase kinase 4 (Homo sapiens) (UniProt Q9Y6R4); experiment: Selectivity interaction (Ambit KINOMEscan and KiNATiv profiling in Jurkat cells) EUB0000090b MAP3K4; assay type: cell-based; conditions: at 1 µM
[3] = biological target: Vascular endothelial growth factor receptor 2 (Homo sapiens, UniProt P35968); experiment: Selectivity interaction (KinomeScan (DiscoverX)) EUB0000699a KDR; conditions: at 10 µM
Chain of Vascular endothelial growth factor receptor 2 (P35968 whole entry): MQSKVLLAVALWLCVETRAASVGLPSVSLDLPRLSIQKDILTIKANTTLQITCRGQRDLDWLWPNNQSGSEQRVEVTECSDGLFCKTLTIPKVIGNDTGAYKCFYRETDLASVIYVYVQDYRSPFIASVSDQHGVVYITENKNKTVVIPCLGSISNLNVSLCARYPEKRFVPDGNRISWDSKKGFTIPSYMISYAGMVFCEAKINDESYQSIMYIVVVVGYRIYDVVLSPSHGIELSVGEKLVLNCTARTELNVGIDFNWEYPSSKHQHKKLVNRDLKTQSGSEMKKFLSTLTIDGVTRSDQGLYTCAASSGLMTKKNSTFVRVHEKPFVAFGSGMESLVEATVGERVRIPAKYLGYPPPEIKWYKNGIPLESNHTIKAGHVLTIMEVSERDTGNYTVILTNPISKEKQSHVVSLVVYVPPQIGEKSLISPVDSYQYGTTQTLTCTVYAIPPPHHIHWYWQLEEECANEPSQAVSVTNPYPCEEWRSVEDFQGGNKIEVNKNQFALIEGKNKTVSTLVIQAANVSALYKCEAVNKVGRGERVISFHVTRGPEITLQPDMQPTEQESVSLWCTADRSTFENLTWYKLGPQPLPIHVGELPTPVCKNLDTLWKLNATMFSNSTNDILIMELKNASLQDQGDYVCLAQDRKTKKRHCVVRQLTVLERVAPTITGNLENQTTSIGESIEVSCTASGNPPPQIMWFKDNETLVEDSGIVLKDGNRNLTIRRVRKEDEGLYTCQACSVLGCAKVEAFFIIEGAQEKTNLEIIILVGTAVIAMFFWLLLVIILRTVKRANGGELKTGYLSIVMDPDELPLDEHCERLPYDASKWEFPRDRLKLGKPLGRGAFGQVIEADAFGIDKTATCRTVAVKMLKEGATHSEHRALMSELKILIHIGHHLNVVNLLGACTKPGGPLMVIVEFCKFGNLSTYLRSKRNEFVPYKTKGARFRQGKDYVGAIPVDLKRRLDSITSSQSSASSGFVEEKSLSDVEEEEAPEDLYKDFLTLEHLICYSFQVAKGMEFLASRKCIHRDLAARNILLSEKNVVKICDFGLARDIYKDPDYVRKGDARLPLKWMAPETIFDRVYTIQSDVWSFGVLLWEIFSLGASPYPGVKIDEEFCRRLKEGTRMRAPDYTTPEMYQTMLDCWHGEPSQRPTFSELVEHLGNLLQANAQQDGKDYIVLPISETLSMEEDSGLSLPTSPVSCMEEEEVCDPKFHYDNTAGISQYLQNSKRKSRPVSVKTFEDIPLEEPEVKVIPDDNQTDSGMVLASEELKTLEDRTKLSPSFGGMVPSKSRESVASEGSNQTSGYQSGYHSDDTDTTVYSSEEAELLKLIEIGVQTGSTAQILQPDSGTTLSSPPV

[4] = biological target: Eukaryotic translation initiation factor 2-alpha kinase 1 (Homo sapiens) (UniProt Q9BQI3); experiment: Selectivity interaction (KinomeScan (DiscoverX)) EUB0000229b EIF2AK1; conditions: at 10 µM
[5] = biological target: Tyrosine-protein kinase HCK (Homo sapiens) (UniProt P08631); experiment: Selectivity interaction (KinomeScan (DiscoverX)) EUB0000229b HCK; conditions: at 10 µM
Chain of Tyrosine-protein kinase HCK (Homo sapiens) (P08631 2-526 limits assumed): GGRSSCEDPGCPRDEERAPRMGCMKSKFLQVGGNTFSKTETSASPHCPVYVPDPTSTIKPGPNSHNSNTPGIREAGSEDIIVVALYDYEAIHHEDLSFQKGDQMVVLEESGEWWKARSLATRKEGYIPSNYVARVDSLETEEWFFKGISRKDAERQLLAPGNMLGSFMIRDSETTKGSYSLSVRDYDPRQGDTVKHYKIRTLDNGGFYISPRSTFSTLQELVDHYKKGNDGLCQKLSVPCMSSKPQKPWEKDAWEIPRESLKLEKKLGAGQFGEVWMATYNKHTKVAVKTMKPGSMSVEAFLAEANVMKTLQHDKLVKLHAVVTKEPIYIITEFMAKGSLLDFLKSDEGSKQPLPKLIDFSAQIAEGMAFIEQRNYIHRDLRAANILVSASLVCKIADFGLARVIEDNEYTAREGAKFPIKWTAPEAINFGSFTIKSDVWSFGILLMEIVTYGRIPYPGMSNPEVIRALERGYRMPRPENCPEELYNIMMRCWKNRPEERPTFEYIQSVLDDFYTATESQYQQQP

[6] = biological target: Phosphorylase b kinase gamma catalytic chain, skeletal muscle/heart isoform (Homo sapiens) (UniProt Q16816); experiment: Selectivity interaction (KinomeScan (DiscoverX)) EUB0000229b PHKG1; conditions: at 10 µM
Chain of Phosphorylase b kinase gamma catalytic chain, skeletal muscle/heart isoform (Homo sapiens) (Q16816 whole entry, looked up, canonical isoform): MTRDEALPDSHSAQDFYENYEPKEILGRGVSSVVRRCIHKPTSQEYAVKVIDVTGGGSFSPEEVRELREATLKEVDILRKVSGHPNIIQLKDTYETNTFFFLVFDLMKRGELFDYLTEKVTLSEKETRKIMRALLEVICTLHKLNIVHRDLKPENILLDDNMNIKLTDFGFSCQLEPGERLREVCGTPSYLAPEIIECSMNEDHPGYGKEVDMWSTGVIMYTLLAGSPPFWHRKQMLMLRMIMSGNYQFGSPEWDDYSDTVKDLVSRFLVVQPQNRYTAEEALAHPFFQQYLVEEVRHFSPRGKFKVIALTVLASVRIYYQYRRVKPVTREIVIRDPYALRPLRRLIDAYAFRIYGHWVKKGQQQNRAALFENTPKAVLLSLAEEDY

[7] = biological target: Serine/threonine-protein kinase PAK 2 (Homo sapiens) (UniProt Q13177); experiment: Selectivity interaction (Kinase panel (Eurofins)) EUB0001564a PAK2; conditions: at 1 µM
[8] = biological target: RAC-alpha serine/threonine-protein kinase (Homo sapiens, UniProt P31749); experiment: Selectivity interaction (Upstate Kinase Profiler service (Millipore)) EUB0000056c AKT1; conditions: at 1 µM
Chain of RAC-alpha serine/threonine-protein kinase (P31749 whole entry): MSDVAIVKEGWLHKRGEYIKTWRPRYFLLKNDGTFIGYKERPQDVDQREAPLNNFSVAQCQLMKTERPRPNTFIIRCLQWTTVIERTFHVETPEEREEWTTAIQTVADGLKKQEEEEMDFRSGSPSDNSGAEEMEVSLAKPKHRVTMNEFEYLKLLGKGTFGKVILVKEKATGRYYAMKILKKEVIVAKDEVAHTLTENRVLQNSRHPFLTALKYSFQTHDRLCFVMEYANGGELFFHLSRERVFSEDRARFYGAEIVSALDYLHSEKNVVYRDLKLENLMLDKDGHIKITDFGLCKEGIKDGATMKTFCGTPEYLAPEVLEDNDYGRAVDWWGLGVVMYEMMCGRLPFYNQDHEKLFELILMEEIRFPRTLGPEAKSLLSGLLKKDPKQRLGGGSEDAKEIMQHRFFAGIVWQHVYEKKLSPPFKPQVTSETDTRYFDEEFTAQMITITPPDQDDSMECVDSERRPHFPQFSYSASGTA

[9] = biological target: Death-associated protein kinase 1 (Homo sapiens, UniProt P53355); experiment: Selectivity interaction (Upstate Kinase Profiler service (Millipore)) EUB0000056c DAPK1; conditions: at 1 µM
Chain of Death-associated protein kinase 1 (P53355 whole entry, looked up): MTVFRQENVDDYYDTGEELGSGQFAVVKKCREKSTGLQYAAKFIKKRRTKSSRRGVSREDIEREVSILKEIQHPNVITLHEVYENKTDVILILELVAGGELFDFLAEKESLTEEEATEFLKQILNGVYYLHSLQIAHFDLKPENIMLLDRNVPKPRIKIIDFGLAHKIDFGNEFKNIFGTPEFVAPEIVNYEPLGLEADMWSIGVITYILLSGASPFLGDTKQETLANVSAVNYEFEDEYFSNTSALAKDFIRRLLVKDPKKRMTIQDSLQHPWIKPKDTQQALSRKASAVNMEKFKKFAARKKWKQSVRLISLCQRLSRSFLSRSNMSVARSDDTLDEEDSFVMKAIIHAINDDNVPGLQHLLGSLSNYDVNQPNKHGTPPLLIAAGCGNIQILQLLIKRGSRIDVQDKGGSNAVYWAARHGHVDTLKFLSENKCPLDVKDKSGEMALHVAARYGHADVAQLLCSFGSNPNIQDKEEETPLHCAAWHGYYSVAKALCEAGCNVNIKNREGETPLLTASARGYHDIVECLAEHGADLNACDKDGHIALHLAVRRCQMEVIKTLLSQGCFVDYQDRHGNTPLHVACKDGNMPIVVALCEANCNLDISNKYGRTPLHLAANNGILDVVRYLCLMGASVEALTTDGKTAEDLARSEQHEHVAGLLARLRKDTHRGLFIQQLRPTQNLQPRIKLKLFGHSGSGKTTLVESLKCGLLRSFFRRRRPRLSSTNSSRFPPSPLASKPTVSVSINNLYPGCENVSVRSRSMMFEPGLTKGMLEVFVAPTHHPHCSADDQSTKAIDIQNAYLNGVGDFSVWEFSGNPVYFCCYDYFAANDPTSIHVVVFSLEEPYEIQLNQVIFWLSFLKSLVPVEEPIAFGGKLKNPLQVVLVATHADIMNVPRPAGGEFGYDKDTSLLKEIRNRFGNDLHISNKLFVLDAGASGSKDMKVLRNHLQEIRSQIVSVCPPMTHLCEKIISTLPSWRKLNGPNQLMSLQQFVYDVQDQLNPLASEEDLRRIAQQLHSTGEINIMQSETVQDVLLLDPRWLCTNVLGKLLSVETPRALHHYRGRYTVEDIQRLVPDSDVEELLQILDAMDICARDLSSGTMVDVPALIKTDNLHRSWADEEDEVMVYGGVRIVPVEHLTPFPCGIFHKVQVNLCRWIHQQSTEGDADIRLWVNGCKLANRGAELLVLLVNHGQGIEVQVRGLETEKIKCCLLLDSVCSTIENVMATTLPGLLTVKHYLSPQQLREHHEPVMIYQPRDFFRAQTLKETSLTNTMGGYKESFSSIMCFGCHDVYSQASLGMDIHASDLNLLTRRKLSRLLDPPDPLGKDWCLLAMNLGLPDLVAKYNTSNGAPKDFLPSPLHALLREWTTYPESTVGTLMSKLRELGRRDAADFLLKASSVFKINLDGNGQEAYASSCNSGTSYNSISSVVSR

[10] = biological target: Glycogen synthase kinase-3 alpha (Homo sapiens, UniProt P49840); experiment: Selectivity interaction (Upstate Kinase Profiler service (Millipore)) EUB0000056c GSK3A; conditions: at 1 µM
[11] = biological target: T1, Ephrin type-B receptor 6 (Homo sapiens) (UniProt O15197); experiment: Selectivity interaction (KinomeScan (DiscoverX)) EUB0000655a EPHB6; conditions: at 10 µM
T1 sequence (whole entry): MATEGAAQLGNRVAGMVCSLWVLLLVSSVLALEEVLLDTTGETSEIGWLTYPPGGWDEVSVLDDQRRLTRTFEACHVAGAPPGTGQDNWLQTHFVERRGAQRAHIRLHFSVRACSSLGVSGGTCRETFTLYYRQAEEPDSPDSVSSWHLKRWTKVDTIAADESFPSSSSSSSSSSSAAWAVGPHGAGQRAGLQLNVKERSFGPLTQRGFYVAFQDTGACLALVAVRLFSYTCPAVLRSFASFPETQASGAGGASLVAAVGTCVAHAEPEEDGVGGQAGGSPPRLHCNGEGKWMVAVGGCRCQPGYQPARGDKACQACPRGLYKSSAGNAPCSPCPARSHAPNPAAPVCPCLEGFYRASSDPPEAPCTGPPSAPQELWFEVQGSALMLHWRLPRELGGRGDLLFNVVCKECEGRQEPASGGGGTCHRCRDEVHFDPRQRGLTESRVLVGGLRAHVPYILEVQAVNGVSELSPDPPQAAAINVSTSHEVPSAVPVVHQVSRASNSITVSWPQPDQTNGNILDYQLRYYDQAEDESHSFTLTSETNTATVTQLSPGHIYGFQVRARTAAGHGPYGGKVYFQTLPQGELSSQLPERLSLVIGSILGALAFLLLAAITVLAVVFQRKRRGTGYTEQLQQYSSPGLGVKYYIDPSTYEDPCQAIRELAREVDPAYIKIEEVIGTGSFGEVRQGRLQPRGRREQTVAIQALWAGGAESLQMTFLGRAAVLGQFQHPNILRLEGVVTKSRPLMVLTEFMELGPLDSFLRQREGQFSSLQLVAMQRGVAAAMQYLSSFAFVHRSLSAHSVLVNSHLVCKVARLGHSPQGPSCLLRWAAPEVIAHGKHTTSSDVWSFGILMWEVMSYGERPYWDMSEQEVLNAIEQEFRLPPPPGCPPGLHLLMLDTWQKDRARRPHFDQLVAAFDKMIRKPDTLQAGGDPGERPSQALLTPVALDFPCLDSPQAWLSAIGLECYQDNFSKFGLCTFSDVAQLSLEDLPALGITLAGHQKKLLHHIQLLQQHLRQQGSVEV

[12] = biological target: Tyrosine-protein kinase Lyn (Homo sapiens, UniProt P07948); experiment: Selectivity interaction (KinomeScan (DiscoverX)) EUB0001619a LYN; conditions: at 1 µM
Chain of Tyrosine-protein kinase Lyn (P07948 2-512 limits assumed): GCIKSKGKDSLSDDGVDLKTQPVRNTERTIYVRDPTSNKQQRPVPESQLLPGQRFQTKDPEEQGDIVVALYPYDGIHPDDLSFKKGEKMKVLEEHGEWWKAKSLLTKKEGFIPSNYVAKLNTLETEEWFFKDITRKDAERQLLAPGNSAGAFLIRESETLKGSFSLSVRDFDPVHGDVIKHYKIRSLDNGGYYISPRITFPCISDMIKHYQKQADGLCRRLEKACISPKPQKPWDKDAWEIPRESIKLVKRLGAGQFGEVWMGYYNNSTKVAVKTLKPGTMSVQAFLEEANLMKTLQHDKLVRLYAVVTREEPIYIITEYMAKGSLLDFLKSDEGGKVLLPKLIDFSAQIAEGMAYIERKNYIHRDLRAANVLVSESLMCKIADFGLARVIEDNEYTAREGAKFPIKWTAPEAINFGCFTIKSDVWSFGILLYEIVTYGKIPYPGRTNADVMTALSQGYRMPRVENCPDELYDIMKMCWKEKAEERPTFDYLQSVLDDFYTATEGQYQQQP

[13] = biological target: T2, Dual specificity mitogen-activated protein kinase kinase 3 (Homo sapiens) (UniProt P46734); experiment: Selectivity interaction (KinomeScan (DiscoverX)) EUB0000607a MAP2K3; conditions: at 10 µM
T2 sequence (whole entry): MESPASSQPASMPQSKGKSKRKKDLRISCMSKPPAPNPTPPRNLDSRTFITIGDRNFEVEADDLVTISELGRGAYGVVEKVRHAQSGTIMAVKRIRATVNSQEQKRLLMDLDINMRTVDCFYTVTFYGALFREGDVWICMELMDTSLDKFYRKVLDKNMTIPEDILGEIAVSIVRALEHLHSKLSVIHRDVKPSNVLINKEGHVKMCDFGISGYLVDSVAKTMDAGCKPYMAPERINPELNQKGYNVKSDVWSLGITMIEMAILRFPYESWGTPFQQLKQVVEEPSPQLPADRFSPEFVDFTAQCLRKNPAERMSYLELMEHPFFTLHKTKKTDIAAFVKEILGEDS

[14] = biological target: Bromodomain-containing protein 4 (Homo sapiens, UniProt O60885); experiment: Selectivity interaction (Kinase panel (DSF assay)) EUB0001558a BRD4

Question: Which % of control [1] does the source give for `Cc1cc([C@@H](C)Nc2ccccc2C(=O)O)c2nc(N3CCOCC3)cc(=O)n2c1` [AZD-6482] here?
Answer: 95%

Question: `CN(C)C/C=C/C(=O)Nc1ccc(C(=O)N2CCCC(Nc3ncc(Cl)c(-c4c[nH]c5ccccc45)n3)C2)cc1` (centres undefined) was tested. Which % of control [2] did it give?
Answer: 64%

Question: For `CCN(CC)CCCCNc1ncc2cc(-c3cc(OC)cc(OC)c3)c(NC(=O)NC(C)(C)C)nc2n1`, which % of control [3] is on record?
Answer: 21%

Question: `COc1cc(N(C)c2ccnc3ccc(C(F)(F)F)cc23)cc(OC)c1OC` was tested. Which % binding [4] did it give?
Answer: 74%

Question: And the % binding [5]?
Answer: 100%

Question: What about the % binding [6] of the same molecule?
Answer: 100%

Question: Which % of inhibition [7] does the source give for `CC[C@@H](Nc1c(C#N)c(-c2ccc(-c3cccc(C)c3F)cc2)nc2cnccc12)C(=O)O` [BAY-091] here?
Answer: 24.9%

Question: With `Cc1ccc(-c2ccc3c(ccc4sc5c(c43)NC[C@@H](C)NC5=O)n2)cn1` as the molecule, how does the % of inhibition [8] read?
Answer: 5%

Question: What about the % of inhibition [9] of the same molecule?
Answer: 11%

Question: What about the % of inhibition [10] of the same molecule?
Answer: 2%

Question: `CN(C)CCOc1ccc(-c2nc(-c3ccncc3)c(-c3ccc4c(c3)CC/C4=N\O)[nH]2)cc1` was tested. Which % of control [11] did it give?
Answer: 34%

Question: For `N#Cc1cccc(-c2c[nH]c3ncnc(N4CCOCC4)c23)c1`, which % of control [12] is on record?
Answer: 91%

Question: Which % of control [13] does the source give for `CNC(=O)Nc1ccc(-c2nc(N3CC4CCC(C3)O4)c3cnn(C4CCC5(CC4)OCCO5)c3n2)cc1` here?
Answer: 89%

Question: How did the dTM [14] turn out when `CC(C)(O)[C@H](F)CN1Cc2cc(NC(=O)c3cnn4cccnc34)c(N3CCOCC3)cc2C1=O` was run?
Answer: 0.4 K
